How the values were obtained:
[1] = test system: hippocampal neurogenesis (Dentate Gyrus); test: in vivo neurogenesis assay (BrdU+ cells in dentate gyrus); set-up: species or system mice
Excerpt: The screen was simple in concept. With help from chemists in the Department of Biochemistry at UTSWMC, we selected 1,000 druglike chemicals from the 250,000 compounds in our high throughput screening center. The compounds were selected to preserve representative chemical diversity of the entire library. They were further selected to enhance the representation of chiral molecules, and to avoid untoward chemical properties such as reactive moieties. The 1,000 molecules were randomly pooled into groups of ten, and each pool was administered directly into the left ventricle of two adult mice. Intracranial delivery was facilitated by stereotactic positioning of a canula fed directly by an Alzet mini-pump containing the mixture of ten chemicals. The drug mixture was administered over a week-long period at concentrations anticipated to deliver mid-nanomolar levels of the ten test compounds. Daily injections of the thymidine analog, bromodeoxyuridine (BrdU), were coadministered in order to monitor the formation of new hippocampal nerve cells. Following compound administration, animals were sacrificed such that brain tissue could be recovered, sectioned and stained with antibodies to BrdU. […]

p70 (NAMPT) = biological target: T1, p70 (NAMPT) (Homo sapiens, UniProt P43490); test: binding competition for photo-crosslinking of P7C3-S326 to p70 in H2122 cells; conditions: 0.3 μM P7C3-S326 plus 5 μM competitor, p70 band intensity, P7C3-S326 alone compared with plus competitor, vehicle 1.0
T1 construct: endogenous in cells; host or cells: H2122 lung cancer cells
T1 sequence (P43490 whole entry): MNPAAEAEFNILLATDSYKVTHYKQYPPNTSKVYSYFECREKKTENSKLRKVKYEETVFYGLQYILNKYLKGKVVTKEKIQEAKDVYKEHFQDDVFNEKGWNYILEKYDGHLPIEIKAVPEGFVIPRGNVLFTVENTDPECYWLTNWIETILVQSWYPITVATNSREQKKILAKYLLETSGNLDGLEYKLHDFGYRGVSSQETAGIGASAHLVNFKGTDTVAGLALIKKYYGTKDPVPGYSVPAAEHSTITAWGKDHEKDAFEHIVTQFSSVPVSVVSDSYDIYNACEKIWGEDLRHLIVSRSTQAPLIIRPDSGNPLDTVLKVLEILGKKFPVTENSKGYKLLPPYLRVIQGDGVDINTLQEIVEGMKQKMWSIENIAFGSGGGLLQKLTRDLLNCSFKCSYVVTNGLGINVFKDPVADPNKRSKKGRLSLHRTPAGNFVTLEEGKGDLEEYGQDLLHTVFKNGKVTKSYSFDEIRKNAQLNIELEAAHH
Procedure: Cultured cells were co-exposed to P7C3-S326 (0.3 uM) and the individual P7C3 variants (5 uM), exposed to UV light, lysed, clicked to a fluorescent dye and run on SDS gels (FIG. 11).
P7C3-S326 was diluted to 0.3 μM in culture medium to treat H2122 cells. After incubation at 37° C. for 2 hours, H2122 cells were irradiated for 15 minutes under 306 nm ultraviolet light in a Stratalinker 2400 (Stratagene). Cells were then harvested by dissolving in 1% SDS lysis buffer 50 mM HEPES, pH 8.0, 2 mM MgCl2, 10 mM KCl, 1% SDS, 50 units/ml of Benzonase (Sigma), supplemented with Sigmafast protease inhibitor (Sigma).
The reaction was incubated at room temperature with constant agitation at 1,000 rpm on a thermomixer (Eppendorf) for 1 hour. Samples were then mixed with SDS sample loading buffer and loaded on an 8% SDS-PAGE gel, separated, and imaged using a Typhoon imager (filter settings: excitation 533 nm, emission 555 nm, and high sensitivity).
H2122 cells were incubated with the P7C3-S326 (0.3 μM) in the absence or presence of P7C3 analogs for 2 hours following by UV crosslinking. […] The samples were run on SDS-PAGE gels scanned using a Typhoon Imager. The p70 band intensity was analyzed and quantified by Image J, and the relative intensity in each assay was normalized to that of the DMSO control.

[2] = living mice, vehicle (DMSO) 7.3

SMILES | Neurogenesis # BrdU+ Cells (X10E06)/mm3 Dentate Gyrus [1, 2] | Binding competition (p70 (NAMPT)) | Neurogenesis # BrdU+ Cells (X10E06)/mm3 Dentate Gyrus ([1]; mouse, in vivo)
COc1ccc(NCC(F)Cn2c3ccc(Br)cc3c3cc(Br)ccc32)cc1 (centres unmarked) [S60] | 12.6 (X10E06)/mm3 | 1.4 | 
N#CN1CCc2c(c3cc(Br)ccc3n2CC(O)COc2ccccc2)C1 (centres unmarked) [S107] | 7.3 (X10E06)/mm3 | 3.5 | 
OC(CNc1ccccc1)Cn1c2ccc(C3CC3)cc2c2cc(C3CC3)ccc21 (centres unmarked) [S62] | 11.8 (X10E06)/mm3 | 1.2 | 
CCOC(=O)C1=NCc2c(c3ccccc3n2S(=O)(=O)c2ccc(C)cc2)N1 [S247] | 15.6 (X10E06)/mm3 | 1.6 | 
Oc1cccc(SCC(O)CC2c3ccc(Br)cc3-c3cc(Br)ccc32)c1 (centres unmarked) [S91] | 8.2 (X10E06)/mm3 | 3.4 | 
O=C(COc1ccc(SCC(O)Cn2c3ccc(Br)cc3c3cc(Br)ccc32)cc1)NCc1ccccc1 (centres unmarked) [S99] | 7.6 (X10E06)/mm3 | 2.5 | 
OC(Cn1ccc2ccccc21)Cn1c2ccc(Br)cc2c2cc(Br)ccc21 (centres unmarked) [S22] | 6.7 (X10E06)/mm3 | 2.7 | 
CN1CCN2c3ncccc3Cc3ccccc3C2C1 (centres unmarked) [S126, Remeron, reference compound] | 8.8 (X10E06)/mm3 | 1.3 | 
COc1cccc(NCC(O)Cn2c3ccc(C)cc3c3cc(C)ccc32)c1 (centres unmarked) [S2] | 8.1 (X10E06)/mm3 | 3.7 | 
N[C@@H]1C[C@H]1c1ccccc1 [S118, Parnate, reference compound] |  | 1.3 | 8.3 (X10E06)/mm3
CC(=O)NCCOCC(O)Cn1c2ccc(Br)cc2c2cc(Br)ccc21 (centres unmarked) [S43] | 11.7 (X10E06)/mm3 | 1.7 | 
COc1ccc(S(=O)(=O)CC(O)Cn2c3ccc(Br)cc3c3cc(Br)ccc32)cc1 (centres unmarked) [S84] | 12.8 (X10E06)/mm3 | 1.2 | 
Nc1ccc(SCC(O)Cn2c3ccc(Br)cc3c3cc(Br)ccc32)cc1 (centres unmarked) [S96] | 8.7 (X10E06)/mm3 | 3.9 | 
CCC(C)N(C)C(=O)c1cc2ccccc2c(-c2ccccc2Cl)n1 (centres unmarked) [S200, PK11195, reference compound] | 11.1 (X10E06)/mm3 | 1.3 | 
CN1CCc2c(c3cc(Br)ccc3n2CC(O)COc2ccccc2)C1 (centres unmarked) [S131] | 7.3 (X10E06)/mm3 | 3.5 | 
O=C(O)CCc1c[nH]c2ccccc12 [S242] | 10.8 (X10E06)/mm3 | 1.2 | 
OC(COc1ccccc1)Cn1c2ccc(Br)cc2c2cc(Br)ccc21 (centres unmarked) [S39] | 14.8 (X10E06)/mm3 | 2.6 | 
CNC(=O)Cn1c2ccc(Br)cc2c2cc(Br)ccc21 [S214] | 9.9 (X10E06)/mm3 | 1.7 | 
Brc1ccc2[nH]c3ccccc3c2c1 [S236] | 12.3 (X10E06)/mm3 | 1.7 | 
O=C(Cn1c2ccc(Br)cc2c2cc(Br)ccc21)NO [S231] | 13.1 (X10E06)/mm3 | 1.7 | 
NC(COc1ccccc1)Cn1c2ccc(Br)cc2c2cc(Br)ccc21 (centres unmarked) [S97] | 7.6 (X10E06)/mm3 | 2.0 | 
OC(CNc1ccccc1)Cn1c2ccc(Br)cc2c2cc(Br)ncc21 (centres unmarked) [S30] | 14.3 (X10E06)/mm3 | 3.3 | 

Reference: patent US9243281B2, “Neuroprotective chemicals and methods for identifying and using same” (Board of Regents of The University of Texas System, priority 2013, dated 2016)
